The structures appear in SMILES notation. Positions count from the first letter of the chain named. Values joined by “and” are separate entries in the source; they are usually repeats but may differ in a detail not shown here. Equal values may be shown once.

The target of one test is T1, COX2 S565A (Homo sapiens, UniProt P35354, S565A).
T1 construct: His (N); made in house
T1 sequence (P35354 18-604 S565A): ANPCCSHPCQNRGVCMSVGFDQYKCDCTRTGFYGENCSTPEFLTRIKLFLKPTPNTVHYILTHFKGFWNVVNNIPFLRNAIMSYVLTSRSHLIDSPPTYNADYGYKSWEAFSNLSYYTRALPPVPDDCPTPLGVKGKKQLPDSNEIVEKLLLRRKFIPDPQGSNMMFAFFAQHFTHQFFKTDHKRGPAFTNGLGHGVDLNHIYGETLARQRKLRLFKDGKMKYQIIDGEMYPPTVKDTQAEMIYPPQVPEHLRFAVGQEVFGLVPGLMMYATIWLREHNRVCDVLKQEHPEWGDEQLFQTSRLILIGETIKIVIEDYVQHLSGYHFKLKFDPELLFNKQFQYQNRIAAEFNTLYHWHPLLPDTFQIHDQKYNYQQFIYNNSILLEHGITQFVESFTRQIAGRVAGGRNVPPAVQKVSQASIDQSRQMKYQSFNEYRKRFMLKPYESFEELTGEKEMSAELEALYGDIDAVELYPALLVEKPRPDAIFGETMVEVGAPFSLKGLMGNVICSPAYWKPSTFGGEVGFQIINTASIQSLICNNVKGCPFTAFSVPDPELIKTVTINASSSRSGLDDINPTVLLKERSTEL
The test can be described thus: filter binding assay of [14C] N-AS to COX2. Conditions: replicates. The text has this:
(§1) Single point mutations in SphK1 (R56A, R57A, R24A, R185A, D178A, and F192A) and COX2 (S565A, N181A, T564A, and S567A) were generated using the In-Fusion Cloning Kits (Clontech) and ORF cDNA expression plasmids of human SphK1 and COX2 gene (Sino Biological Inc, HG15679-NH and HG12036-NH), according to the manufacturer’s instructions. The forward and reverse primers described in Supplementary Table 4. The SphK1 WT, SphK1 mutants, COX2 WT, and COX2 mutant plasmids were transformed in the One shot TOP 10 competent cell (Invitrogen). The bacteria were grown in Luria-Bertani (LB, Invitrogen) plates supplemented with 50 μg ml^−1 kanamycin (Sigma-Aldrich) at 37 °C. The bacterial cell pellets were resuspended in lysis buffer containing 20 mM sodium phosphate (GE Healthcare), 500 mM NaCl (GE Healthcare), 20 mM imidazole (pH 7.4) (GE Healthcare), 0.2 mg ml^−1 lysozyme (Sigma-Aldrich), 20 μg ml^−1 DNase I (Roche), 1 mM MgCl2 (Sigma-Aldrich), and 1 mM PMSF (Sigma-Aldrich) before being lysed by sonication and clarified by centrifugation at 15,493×g for 10 min. Proteins were purified from the soluble fraction using His-Spin Trap columns (GE Healthcare) and the binding and acetylation assays were performed.
(§2) Briefly, SphK1 WT and mutant enzymes (1 mU) were resuspended in 100 μl reaction buffer (20 mM HEPES; pH 7.4, 50 mM NaCl, 10 mM MgCl2, 1 mM EGTA, 0.02% Triton-X100, and 100 μM sphingosine, all from Sigma-Aldrich). […] Briefly, COX2 WT and mutant enzymes (1 mU) were resuspended in 100 μl reaction buffer (20 mM HEPES; pH 7.4, 50 mM NaCl, 10 mM MgCl2, 1 mM EGTA, and 0.02% Triton-X100, all from Sigma-Aldrich). Reactions were initiated by adding [^14C] N-AS (1–200 μM (0.1–20 μCi), ARC UK Ltd, ARC-1024) and incubated at 37 °C for 1 h. The reactions were terminated by adding 100 μl of ice-cold reaction buffer containing 5 mM cold N-AS and immediately filtered through P30 filtermat (Perkin-Elmer), followed by five washes.
(§3) The binding velocity was plotted and the Kcat and KM values were calculated from the Michaelis-Menten analysis using the Sigma-plot program (ver 10.0, Systat software Inc.).

The target in another test is T2, COX2 WT (Homo sapiens, UniProt P35354).
T2 construct: His (N); made in house
T2 sequence (P35354 18-604): T1 sequence (P35354 18-604 S565A) with A548S
In words: filter binding assay of [14C] N-AS to COX2. Conditions: COX2 Control, replicates.
Text: as §1, §2, §3

Consider `CCCCCCCCCCCCC/C=C/[C@@H](O)[C@H](CO)NC(C)=O` [N-AS, N-((2S,3R,E)-1,3-Dihydroxyoctadec-4-en-2-yl)acetamide], for which the “binding velocity (Vbinding)” value at COX2 S565A (1 uM) is 0.294 nM/min and 0.145 nM/min and 0.375 nM/min; at COX2 S565A (5 uM), 4.092 nM/min and 3.850 nM/min and 4.567 nM/min; on COX2 S565A (10 uM), 6.171 nM/min and 6.000 nM/min and 6.819 nM/min; at COX2 S565A (20 uM) it was 11.138 nM/min and 12.964 nM/min and 8.904 nM/min; on COX2 S565A (100 uM) it was 19.545 nM/min and 19.934 nM/min and 20.173 nM/min; at COX2 S565A (200 uM), 28.985 nM/min and 29.725 nM/min and 29.810 nM/min. Besides, the “binding velocity (Vbinding)” value was 0.888 nM/min and 1.293 nM/min and 0.920 nM/min on COX2 WT (1 uM (100 pmol)); 5.664 nM/min and 7.362 nM/min and 11.711 nM/min on COX2 WT (5 uM (500 pmol)); 14.955 nM/min and 10.446 nM/min and 14.278 nM/min on COX2 WT (10 uM (1000 pmol)); 30.848 nM/min and 29.462 nM/min and 25.197 nM/min on COX2 WT (20 uM (2000 pmol)); 52.281 nM/min and 47.667 nM/min and 52.002 nM/min at COX2 WT (100 uM (10000 pmol)); 58.338 nM/min and 57.809 nM/min and 65.044 nM/min on COX2 WT (200 uM (20000 pmol)).

The values are drawn from PMC7217877, “N-AS-triggered SPMs are direct regulators of microglia in a model of Alzheimer’s disease” (Nature Communications, 2020).
